Data as given in PubChem BioAssay AID1259407 (Chemical Carcinogenesis Research Information System (CCRIS), 2018).
Active and inactive are the calls of the source. How the calls were made is not given here.

Tested on: CCRIS mutagenicity, Ames/micronucleus/aberration tests
Experiment: CCRIS mutagenicity studies
[1] = Test System: AMES SALMONELLA TYPHIMURIUM, Strain/Indicator: TA100, Metabolic Activation: NONE, Method: PREINCUBATION

SMILES	mutagenic call [1]	mutagenic call (Test System: AMES SALMONELLA TYPHIMURIUM, Strain/Indicator: TA100, Metabolic Activation: RAT, LIVER, MICROSOMES, Method: PREINCUBATION)	mutagenic call (Test System: UDS RAT HEPATOCYTES, Strain/Indicator: THY INCORP, Metabolic Activation: NONE)	mutagenic call (Test System: AMES SALMONELLA TYPHIMURIUM, Strain/Indicator: TA100, Metabolic Activation: NONE, Method: STANDARD PLATE)	mutagenic call (Test System: AMES SALMONELLA TYPHIMURIUM, Strain/Indicator: TA100, Metabolic Activation: RAT, LIVER, S-9, PCB, Method: PREINCUBATION)
O=CC(Br)CBr (stereo unspecified)	active; positive	active; positive	inactive; negative	–	–
ClC[C@@H]1CO1	active; positive	–	–	active; positive	active; positive
